From ChEMBL document CHEMBL1201862, “PubChem BioAssay data set” (2004)
Calls of active or inactive are those of the source.

Columns and labels:
[1] = NIH-3T3 fibroblast cytotoxicity, dose response, cytotoxicity control, cell-based, fluorescence, Alamar Blue, secondary assay (AID 2327); type: functional;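 further: NIH-3T3 mouse fibroblasts cultured with fluconazole at 8 µg/mL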
[2] = fluconazole-exposed Candida albicans growth modulators – fluorescence, retest, confirmation (AID 2467); type: functional, cell-based
[3] = target: T1, Leucine aminopeptidase (Plasmodium falciparum 3D7, UniProt Q8IL11); assay: P. falciparum M17LAP inhibitors, primary screen, biochemical, fluorogenic H-Leu-NHMec substrate, 1536-well (AID 1619); type: functional
T1 sequence (Q8IL11 whole entry): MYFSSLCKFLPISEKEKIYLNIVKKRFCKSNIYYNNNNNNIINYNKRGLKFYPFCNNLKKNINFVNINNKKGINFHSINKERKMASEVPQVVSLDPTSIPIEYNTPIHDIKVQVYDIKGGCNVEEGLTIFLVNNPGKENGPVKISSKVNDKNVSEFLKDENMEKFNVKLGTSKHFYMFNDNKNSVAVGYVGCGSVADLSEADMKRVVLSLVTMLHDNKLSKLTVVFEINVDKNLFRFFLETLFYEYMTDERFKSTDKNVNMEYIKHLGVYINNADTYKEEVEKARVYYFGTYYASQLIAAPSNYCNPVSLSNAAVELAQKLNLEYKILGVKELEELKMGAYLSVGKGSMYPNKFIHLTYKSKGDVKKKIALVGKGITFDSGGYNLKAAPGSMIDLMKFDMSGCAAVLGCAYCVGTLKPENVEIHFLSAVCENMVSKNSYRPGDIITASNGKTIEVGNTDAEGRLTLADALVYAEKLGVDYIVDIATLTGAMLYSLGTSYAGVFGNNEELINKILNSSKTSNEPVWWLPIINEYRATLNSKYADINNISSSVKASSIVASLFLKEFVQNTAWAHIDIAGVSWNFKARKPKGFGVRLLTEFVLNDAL

[4] = target: T2, Fatty acid synthase (Homo sapiens, UniProt P49327); assay: inhibition of human FAS-TE enzyme activity – biochemical, kinetic fluorescence intensity, dose response (AID 624326); type: functional;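 further: rate of fluorescence rise from hydrolysis of a fluorogenic O-methyl fluorescein ester substrate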
[5] = target: T2, Fatty acid synthase; assay: inhibition of human FAS-TE enzyme activity – biochemical, endpoint fluorescence intensity, uHTS hits, dose response (AID 624327); type: functional;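 further: fluorescence from hydrolysis of an O-methyl fluorescein acyl ester substrate by the enzyme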
[6] = non-specific 3'UTR reporter inhibition in Clone20-Shn3RL – cell-based, Renilla luciferase, cherry-picked, counter-screen for Shn3 inhibitor project, dose response (AID 624133); type: functional
[7] = reduction of Shn3 3'UTR-driven luciferase in osteoblasts – cell-based, Clone20 osteoblasts, firefly luciferase, cherry-picked, dose response (AID 624132); type: functional;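 further: firefly luciferase luminescence from reporter carrying the Shn3 3'UTR in osteoblasts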
[8] = target: Cytochrome P450 2D6 (Homo sapiens, UniProt P10635);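 further: CYP2D6 member of a cytochrome P450 panel assay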
[9] = target: Cytochrome P450 2C9 (Homo sapiens, UniProt P11712)
[10] = tested on: H4; assay: Luminescence Cell-Based Dose Response HTS to Identify Activators of 5'UTR Stem-Loop Driven Prion Protein mRNA Translation in H4 Neuroglioblastoma Cells. [Related pubchem assays: 1829 (Project Summary), 1814 (Primary HTS)]; type: functional; conditions: Homo sapiens
[11] = Luminescence Cell-Based Dose Confirmation HTS to Identify Activators of 5'UTR Stem-Loop Driven Alpha-Synuclein mRNA Translation in H4 Neuroglioblastoma Cells. [Related pubchem assays: 1829 (Project Summary), 1814 (Primary HTS)]; type: functional
[12] = Luminescence Cell-Based Dose Response HTS to Identify Activators of Luciferase Translation or Activity in H4 […] Cells. [Related pubchem assays: 1829 (Project Summary), 1814 (Primary HTS)]; type: functional
[13] = target: T3, Polyadenylate-binding protein 1 (Homo sapiens, UniProt P11940); assay: MLLE domain peptide-binding blockers, IC50 – biochemical, fluorescence polarization, FITC-PAM2 peptide, dose response (AID 602259); type: functional; conditions: read-out: IC50_Mean
[14] = target: T3, Polyadenylate-binding protein 1; assay: MLLE binding blockers, Cy5 peptide tracer – biochemical, fluorescence polarization, Cy5-PAM2 peptide, secondary, miRNA deadenylation inhibitor project, dose response (AID 602260); type: functional; conditions: read-out: IC50_Mean
[15] = target: T4, Replicative DNA helicase DnaB (Mycobacterium tuberculosis, UniProt P9WMR3); assay: DnaB intein splicing inhibitors, dose response, biochemical, cell-free fluorescence (AID 449749); type: functional
T4 sequence (P9WMR3 whole entry): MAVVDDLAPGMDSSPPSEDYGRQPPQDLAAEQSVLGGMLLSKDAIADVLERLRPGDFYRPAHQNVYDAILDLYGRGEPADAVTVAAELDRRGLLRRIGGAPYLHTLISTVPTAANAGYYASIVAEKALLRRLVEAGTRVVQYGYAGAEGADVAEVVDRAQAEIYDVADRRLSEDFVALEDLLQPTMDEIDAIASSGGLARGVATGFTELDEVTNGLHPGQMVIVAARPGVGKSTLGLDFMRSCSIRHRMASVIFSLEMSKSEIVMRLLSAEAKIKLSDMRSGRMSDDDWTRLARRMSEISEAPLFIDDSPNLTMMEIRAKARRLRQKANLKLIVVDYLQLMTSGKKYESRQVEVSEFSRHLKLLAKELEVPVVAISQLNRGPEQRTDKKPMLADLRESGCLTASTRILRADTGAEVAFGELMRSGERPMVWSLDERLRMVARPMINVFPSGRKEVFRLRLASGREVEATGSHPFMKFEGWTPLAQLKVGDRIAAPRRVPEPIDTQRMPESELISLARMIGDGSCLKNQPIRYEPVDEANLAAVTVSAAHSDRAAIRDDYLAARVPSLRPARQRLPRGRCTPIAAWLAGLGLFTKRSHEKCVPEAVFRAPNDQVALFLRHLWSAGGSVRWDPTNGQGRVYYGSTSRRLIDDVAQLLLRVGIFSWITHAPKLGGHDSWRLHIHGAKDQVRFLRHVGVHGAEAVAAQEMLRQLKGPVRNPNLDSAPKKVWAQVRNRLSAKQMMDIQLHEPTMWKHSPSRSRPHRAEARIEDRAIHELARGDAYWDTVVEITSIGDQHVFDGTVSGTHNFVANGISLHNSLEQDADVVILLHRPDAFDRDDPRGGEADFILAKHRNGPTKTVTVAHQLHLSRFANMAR

[16] = target: T5, Protein RecA (Mycobacterium tuberculosis, UniProt P9WHJ3); assay: Fluorescence Cell-Free Homogeneous Dose Retest to Identify Inhibitors of RecA-Intein Splicing Activity. [Related pubchem assays (depositor defined):AID2097, AID2223, AID489010, AID492950]; type: functional
T5 sequence (P9WHJ3 whole entry): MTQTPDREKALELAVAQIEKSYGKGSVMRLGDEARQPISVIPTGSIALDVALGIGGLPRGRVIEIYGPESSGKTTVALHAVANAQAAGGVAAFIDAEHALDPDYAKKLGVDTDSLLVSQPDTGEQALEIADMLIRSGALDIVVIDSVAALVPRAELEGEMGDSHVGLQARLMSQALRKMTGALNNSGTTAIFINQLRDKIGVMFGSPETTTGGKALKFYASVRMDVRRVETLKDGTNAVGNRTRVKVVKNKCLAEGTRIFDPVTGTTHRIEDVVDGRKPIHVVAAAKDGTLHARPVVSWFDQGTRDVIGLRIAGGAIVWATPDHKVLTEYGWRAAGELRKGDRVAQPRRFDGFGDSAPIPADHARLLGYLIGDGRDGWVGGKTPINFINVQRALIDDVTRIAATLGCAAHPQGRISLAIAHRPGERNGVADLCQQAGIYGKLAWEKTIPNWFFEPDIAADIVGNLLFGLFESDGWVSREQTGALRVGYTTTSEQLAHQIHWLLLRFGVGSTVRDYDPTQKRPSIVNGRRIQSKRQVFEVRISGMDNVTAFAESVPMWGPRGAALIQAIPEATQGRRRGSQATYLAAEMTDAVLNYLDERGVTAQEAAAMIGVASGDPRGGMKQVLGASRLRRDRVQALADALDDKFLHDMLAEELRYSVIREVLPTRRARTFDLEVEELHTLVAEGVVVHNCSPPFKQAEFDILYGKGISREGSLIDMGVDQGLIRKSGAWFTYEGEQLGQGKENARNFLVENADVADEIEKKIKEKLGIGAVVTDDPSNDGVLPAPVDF

[17] = target: Large T antigen (Simian virus 40, UniProt P03070); type: functional, Betapolyomavirus macacae;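 further: Confirmatory-stage PubChem screen for compounds that inhibit SV40 T antigen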
[18] = target: FAD-linked sulfhydryl oxidase ALR (Homo sapiens, UniProt P55789); assay: ALR-catalysed DTT oxidation blockers – biochemical, H2O2 detection, luminescence, cherry-pick, dose response (AID 493248)
[19] = target: Glucose-6-phosphate 1-dehydrogenase (Homo sapiens, UniProt P11413); assay: inhibition of Homo sapiens G6PD, dose series – biochemical, fluorescence, selectivity assay for P. falciparum G6PD inhibitor project, dose response (AID 504792); type: functional

Large T antigen, sequence (P03070 whole entry): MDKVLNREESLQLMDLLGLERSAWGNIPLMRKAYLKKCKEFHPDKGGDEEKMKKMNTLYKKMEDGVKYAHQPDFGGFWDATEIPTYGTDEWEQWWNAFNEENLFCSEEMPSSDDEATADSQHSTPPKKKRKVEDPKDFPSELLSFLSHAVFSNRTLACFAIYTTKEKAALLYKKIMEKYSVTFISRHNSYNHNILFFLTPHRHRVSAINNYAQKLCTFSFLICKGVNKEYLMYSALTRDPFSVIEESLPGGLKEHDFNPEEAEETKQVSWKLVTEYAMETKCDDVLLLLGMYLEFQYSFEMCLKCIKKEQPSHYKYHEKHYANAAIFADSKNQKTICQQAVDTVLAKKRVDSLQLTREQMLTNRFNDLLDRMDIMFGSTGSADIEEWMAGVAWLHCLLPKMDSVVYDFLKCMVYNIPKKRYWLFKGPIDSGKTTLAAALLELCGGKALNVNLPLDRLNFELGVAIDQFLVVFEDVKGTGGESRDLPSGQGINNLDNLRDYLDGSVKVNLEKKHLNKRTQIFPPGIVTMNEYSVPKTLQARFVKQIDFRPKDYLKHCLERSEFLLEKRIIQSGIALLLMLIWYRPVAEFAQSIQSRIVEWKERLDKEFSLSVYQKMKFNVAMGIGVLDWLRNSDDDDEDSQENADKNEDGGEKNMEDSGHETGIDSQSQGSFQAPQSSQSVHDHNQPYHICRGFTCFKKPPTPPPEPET
Cytochrome P450 2C9, sequence (P11712 whole entry): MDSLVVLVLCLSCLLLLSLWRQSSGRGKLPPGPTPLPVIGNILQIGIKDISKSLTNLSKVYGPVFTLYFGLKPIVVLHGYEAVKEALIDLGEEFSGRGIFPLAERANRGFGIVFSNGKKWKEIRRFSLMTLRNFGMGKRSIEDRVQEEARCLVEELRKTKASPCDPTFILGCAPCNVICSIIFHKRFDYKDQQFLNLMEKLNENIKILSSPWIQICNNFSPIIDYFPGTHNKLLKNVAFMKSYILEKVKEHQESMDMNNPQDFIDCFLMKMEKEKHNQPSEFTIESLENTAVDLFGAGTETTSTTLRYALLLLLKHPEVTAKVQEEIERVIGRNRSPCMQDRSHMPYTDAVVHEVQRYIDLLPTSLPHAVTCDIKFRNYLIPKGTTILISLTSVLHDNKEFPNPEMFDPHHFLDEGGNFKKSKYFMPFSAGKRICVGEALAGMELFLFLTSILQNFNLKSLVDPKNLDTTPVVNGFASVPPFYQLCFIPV
T2 sequence (P49327 whole entry): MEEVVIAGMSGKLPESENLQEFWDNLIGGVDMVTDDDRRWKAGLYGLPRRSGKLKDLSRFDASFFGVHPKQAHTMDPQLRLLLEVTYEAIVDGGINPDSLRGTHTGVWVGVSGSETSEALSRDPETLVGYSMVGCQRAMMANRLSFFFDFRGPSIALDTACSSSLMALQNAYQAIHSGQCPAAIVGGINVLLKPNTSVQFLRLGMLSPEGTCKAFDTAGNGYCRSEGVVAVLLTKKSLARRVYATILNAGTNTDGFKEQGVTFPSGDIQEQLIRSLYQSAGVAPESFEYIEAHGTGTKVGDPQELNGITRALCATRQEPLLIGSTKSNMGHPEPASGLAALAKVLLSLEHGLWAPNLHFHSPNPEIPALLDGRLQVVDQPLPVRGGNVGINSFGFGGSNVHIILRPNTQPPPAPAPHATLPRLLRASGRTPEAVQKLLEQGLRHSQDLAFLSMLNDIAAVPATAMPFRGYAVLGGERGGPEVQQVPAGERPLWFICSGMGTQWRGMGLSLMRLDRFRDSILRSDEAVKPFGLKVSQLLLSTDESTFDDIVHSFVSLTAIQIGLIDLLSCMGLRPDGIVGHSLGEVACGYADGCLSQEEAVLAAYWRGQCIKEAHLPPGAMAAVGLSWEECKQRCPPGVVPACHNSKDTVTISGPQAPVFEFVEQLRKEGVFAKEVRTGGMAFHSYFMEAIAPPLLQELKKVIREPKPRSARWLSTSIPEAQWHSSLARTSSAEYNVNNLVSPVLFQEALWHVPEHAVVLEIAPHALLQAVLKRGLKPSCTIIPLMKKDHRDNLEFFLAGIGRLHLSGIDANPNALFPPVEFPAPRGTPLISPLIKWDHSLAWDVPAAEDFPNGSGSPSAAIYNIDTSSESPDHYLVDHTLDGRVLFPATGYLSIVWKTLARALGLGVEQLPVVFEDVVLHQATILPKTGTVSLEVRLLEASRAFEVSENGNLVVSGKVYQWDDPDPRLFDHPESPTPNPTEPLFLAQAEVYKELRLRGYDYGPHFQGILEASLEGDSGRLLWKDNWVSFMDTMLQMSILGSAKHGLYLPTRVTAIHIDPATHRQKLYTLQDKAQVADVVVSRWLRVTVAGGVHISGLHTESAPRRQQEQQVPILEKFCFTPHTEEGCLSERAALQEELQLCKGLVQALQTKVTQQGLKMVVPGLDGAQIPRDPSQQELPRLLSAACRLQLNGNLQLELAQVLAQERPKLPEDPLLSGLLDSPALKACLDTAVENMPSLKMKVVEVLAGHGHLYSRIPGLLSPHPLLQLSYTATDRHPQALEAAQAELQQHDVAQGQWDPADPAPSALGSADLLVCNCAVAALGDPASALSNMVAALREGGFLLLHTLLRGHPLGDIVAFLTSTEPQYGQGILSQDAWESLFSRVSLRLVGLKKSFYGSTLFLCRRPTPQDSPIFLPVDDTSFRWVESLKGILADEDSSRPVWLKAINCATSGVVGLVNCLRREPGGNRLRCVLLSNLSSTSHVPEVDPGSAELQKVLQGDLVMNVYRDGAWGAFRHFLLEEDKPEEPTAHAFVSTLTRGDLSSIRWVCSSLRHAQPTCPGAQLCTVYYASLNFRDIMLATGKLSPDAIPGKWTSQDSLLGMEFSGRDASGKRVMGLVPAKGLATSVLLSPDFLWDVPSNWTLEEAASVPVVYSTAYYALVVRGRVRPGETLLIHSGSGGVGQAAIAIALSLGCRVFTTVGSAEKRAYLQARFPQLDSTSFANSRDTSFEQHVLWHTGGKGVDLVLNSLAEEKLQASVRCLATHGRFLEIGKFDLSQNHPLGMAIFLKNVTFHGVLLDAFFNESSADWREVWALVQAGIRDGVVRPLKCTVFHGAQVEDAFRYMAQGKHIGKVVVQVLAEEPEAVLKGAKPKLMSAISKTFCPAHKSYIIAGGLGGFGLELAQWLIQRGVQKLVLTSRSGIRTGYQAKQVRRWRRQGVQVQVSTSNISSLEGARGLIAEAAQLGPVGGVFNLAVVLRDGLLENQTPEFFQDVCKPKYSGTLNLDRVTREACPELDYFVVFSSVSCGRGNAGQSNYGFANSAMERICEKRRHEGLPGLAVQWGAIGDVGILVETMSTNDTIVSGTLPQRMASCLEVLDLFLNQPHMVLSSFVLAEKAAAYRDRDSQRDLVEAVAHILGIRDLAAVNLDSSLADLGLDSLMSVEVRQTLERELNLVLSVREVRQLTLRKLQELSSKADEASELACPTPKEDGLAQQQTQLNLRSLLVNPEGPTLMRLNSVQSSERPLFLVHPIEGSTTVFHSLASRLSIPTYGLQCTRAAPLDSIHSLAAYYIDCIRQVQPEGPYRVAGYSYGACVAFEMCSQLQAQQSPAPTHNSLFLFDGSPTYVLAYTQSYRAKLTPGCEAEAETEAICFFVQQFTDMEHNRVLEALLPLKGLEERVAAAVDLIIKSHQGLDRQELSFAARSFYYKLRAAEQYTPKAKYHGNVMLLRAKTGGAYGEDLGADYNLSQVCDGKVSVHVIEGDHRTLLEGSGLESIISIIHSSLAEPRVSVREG
Cytochrome P450 2D6, sequence (P10635 whole entry): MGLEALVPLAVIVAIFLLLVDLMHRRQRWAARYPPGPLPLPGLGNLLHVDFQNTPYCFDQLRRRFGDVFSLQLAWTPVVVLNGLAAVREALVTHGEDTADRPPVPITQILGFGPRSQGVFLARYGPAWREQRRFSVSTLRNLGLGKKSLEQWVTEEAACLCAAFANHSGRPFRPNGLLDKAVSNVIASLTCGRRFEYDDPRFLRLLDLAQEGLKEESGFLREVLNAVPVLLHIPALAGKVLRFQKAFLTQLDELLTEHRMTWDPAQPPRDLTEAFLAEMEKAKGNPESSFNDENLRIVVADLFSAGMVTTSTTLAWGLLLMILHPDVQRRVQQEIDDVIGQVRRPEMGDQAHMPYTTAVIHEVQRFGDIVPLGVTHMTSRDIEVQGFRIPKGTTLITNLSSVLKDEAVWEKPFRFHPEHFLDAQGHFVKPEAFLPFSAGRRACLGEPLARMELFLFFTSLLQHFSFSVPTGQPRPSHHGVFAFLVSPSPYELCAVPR
T3 sequence (P11940 whole entry, the tested form may be a part): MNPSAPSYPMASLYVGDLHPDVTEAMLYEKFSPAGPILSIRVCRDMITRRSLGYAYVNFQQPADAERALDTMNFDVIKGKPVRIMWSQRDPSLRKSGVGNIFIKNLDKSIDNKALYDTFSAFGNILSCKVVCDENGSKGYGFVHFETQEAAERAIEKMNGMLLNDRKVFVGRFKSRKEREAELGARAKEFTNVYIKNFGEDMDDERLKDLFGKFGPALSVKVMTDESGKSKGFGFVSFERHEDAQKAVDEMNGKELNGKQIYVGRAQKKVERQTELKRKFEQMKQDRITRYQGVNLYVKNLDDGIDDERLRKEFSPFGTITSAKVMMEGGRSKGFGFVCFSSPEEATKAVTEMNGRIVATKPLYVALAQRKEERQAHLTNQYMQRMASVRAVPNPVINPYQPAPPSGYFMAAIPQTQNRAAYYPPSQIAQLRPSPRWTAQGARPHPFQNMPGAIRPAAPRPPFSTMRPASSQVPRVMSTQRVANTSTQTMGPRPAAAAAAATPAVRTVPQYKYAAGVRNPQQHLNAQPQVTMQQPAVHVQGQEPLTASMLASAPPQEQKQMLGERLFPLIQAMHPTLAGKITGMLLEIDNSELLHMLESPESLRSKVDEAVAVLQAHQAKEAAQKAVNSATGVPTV
FAD-linked sulfhydryl oxidase ALR, sequence (P55789 whole entry): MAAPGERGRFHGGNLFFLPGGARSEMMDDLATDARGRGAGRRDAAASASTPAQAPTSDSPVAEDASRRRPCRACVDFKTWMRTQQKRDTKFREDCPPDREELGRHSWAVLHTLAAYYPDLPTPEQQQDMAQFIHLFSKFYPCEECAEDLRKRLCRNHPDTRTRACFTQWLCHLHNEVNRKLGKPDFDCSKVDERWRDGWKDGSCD

## CCCCN(C(=O)/C=C/c1ccco1)c1c(N)n(Cc2ccccc2)c(=O)[nH]c1=O
[1]
  EC50: > 150 µM (inactive)
[2]
  EC50: > 38 µM (not active)

## CCOC(=O)CSc1nnc(-c2ccco2)n1-c1ccc(C)cc1
[3]
  IC50: 37 µM (active)

## O=C(/C=C/c1cccc([N+](=O)[O-])c1)NCCSCc1c(Cl)cccc1Cl
[4]
  IC50: 3.92 µM (active)
[5]
  IC50: 4.12 µM (active)

## CC1Cc2ccccc2N1Cc1cccc(S(=O)(=O)N(C)C)c1 (configuration not stated)
[6]
  AC50: 23.9 µM (active)
[7]
  AC50: 33 µM (active)

## CCCCOc1ccc(CN2CCC(O)CC2)cc1
[8]
  AC50: 0.2 µM (inconclusive)
[9]
  AC50: inconclusive

## Cc1ccc(C2=NNC3(CCOC(C)(C)C3)S2)cc1 (configuration not stated)
[10]
  EC50: 19.1 µM (active)
[1]
  EC50: > 160 µM (inactive)
[11]
  EC50: 14 µM (active)
[2]
  EC50: > 38 µM (not active)
[12]
  EC50: 30.5 µM (active)

## Cc1c(O)c(S(=O)(=O)c2ccccc2)c(=O)n(-c2ccccc2)c1-c1ccccc1
[3]
  IC50: 9.98 µM (active)

## CCCCOC(=O)CNc1nnc(SCC(=O)OCC)nc1O
[13]
  IC50: > 66 µM (inactive)
[4]
  IC50: 9.16 µM (active)
[14]
  IC50: > 66 µM (inactive)
[5]
  IC50: 7.5 µM (active)
[15]
  AC50: 2.66 µM (active)
[16]
  EC50: 4.56 µM (active)

## Cc1cccc(-c2nc3ccccc3c(=O)n2NC(=O)/C=C/c2ccc([N+](=O)[O-])cc2)c1
[1]
  EC50: > 150 µM (inactive)
[2]
  EC50: 0.101 µM (active)

## O=C(CSc1nc[nH]n1)Nc1ccccc1C(=O)O
[3]
  IC50: 35.6 µM (active)

## COc1cccc(N2C(=O)NC(=O)/C(=C\NCCN3CCOCC3)C2=O)c1
[9]
  AC50: inconclusive

## Cc1ccc(-c2nnc(NC(=O)c3ccc([N+](=O)[O-])o3)o2)c(C)c1
[1]
  EC50: > 160 µM (inconclusive)
[2]
  EC50: 1.85 µM (active)

## COc1cccc(CNc2ccc3[nH]c(O)nc3c2)c1OCc1ccccc1
[17]
  IC50: 16.5 µM (active)

## Cc1ccc(SC(C)C(=O)Nc2ccc(S(=O)(=O)N3CCOCC3)cc2)cc1 (configuration not stated)
[3]
  IC50: 21.2 µM (active)

## Cn1c(=O)oc2cc(S(=O)(=O)Nc3ccc(O)cc3)ccc21
[18]
  AC50: 1.49 µM (active)
[17]
  IC50: 4.64 µM (active)

## CC(C)Sc1nnc(NC(=O)c2ccc3c(c2)OCO3)s1
[19]
  IC50: 38.9 µM (inactive)

## COc1ccc(/C=C/C(=O)Nc2nc(C)cc(C)n2)cc1OC
[9]
  AC50: inconclusive

## COc1ccc(CCNC(=O)c2ccc3c(SCC(=O)O)c4c(nc3c2)CCCC4)cc1OC
[3]
  IC50: 23.3 µM (active)

## O=C(COc1cccc2ccccc12)NNC(=O)c1cccs1
[9]
  AC50: inconclusive

## COc1cc(/C=C2\C(=O)NN(c3ccccc3)C2=O)ccc1OCC(N)=O
[17]
  IC50: > 100 µM (active)

## O=c1oc(-c2ccccc2Br)nc2ccccc12
[4]
  IC50: 13 µM (active)
[5]
  IC50: 16.1 µM (active)

## COc1ccc(CNc2cc(-c3cccc(NS(C)(=O)=O)c3)ncn2)c(OC)c1
[8]
  AC50: 39.8 µM (inconclusive)
[9]
  AC50: inconclusive

## C[C@@]12C(=O)Nc3cc(F)c(F)cc3C(=O)N1[C@H]1c3ccccc3OC[C@@H]1[C@@H]2c1ccccc1
[4]
  IC50: 8.59 µM (active)
[5]
  IC50: 16.9 µM (active)

## O=[N+]([O-])c1cc(CS(=O)(=O)Oc2ccc(Cl)cc2)c(O)c([N+](=O)[O-])c1
[4]
  IC50: 41.7 µM (inactive)
[5]
  IC50: 16.1 µM (active)

## CC(=O)c1cccc(-c2ccnc3c2CC(C(=O)Nc2ccc(F)c(Cl)c2)O3)c1 (configuration not stated)
[4]
  IC50: 7.91 µM (active)
[5]
  IC50: 7.72 µM (active)

## OCCNc1nc(O)nc(O)c1/N=C/c1ccccc1
[19]
  IC50: 14.2 µM (active)

## Cc1nn(-c2ccccc2)c(S)c1/C=N/c1ccc([N+](=O)[O-])cc1
[17]
  IC50: 25.7 µM (active)

## O=C(Cc1ccccc1)N/N=C/c1ccccc1Cl
[1]
  EC50: > 150 µM (inconclusive)
[2]
  EC50: > 38 µM (not active)

## COc1cc(C(=O)N/N=C(\C)Cn2nc([N+](=O)[O-])cc2C)ccc1O
[17]
  IC50: 29.3 µM (active)

## Cc1cc(=O)oc2cc(O)ccc12 [HYMECROMONE]
[9]
  AC50: inconclusive
